We go through 14 compounds from patent publication US9290487B2, “Pharmaceutical composition for treating diabetes” (Ajinomoto Co., Inc., priority 2011, dated 2016).

Sequence of human GYS1 (glycogen synthase) (P13807 whole entry): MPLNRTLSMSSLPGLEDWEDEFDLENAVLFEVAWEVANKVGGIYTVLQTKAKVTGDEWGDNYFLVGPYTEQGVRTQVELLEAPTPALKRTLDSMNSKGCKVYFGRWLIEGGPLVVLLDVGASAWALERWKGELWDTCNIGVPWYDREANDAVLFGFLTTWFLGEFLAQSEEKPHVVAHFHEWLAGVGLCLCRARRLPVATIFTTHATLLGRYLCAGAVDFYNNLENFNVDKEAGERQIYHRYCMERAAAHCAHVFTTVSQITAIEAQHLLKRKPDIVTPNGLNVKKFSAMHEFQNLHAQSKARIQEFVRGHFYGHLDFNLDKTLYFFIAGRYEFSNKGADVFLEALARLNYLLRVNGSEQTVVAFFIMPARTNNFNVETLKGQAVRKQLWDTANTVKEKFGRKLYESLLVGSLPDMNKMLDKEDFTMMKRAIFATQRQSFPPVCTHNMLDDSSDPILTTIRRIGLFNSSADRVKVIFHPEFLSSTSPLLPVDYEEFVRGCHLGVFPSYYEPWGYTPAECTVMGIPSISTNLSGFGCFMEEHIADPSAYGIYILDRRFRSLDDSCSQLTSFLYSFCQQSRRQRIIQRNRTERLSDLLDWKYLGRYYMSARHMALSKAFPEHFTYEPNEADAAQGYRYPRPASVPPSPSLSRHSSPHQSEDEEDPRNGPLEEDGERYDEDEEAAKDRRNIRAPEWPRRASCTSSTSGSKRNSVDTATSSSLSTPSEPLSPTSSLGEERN

One assay concerns the target human GYS1 (glycogen synthase) (Homo sapiens (Human), UniProt P13807). Nature of the assay: Measurement of glycogen synthase activity (coupled pyruvate kinase/lactate dehydrogenase assay, absorbance at 340 nm). As to conditions: concentration inducing relative activity of 50% (100% = Ex. 1 of WO/2011/058154 at 10 μM); incubation at 30° C. for 25 minutes (Examples 1 to 10). In kind it is biochemical. As for the experimental part:
A human GYS1 expression plasmid (pCDNA3.1(+)-hGYS1) was constructed by the following method. Using a human skeletal muscle cDNA of Human MTC Panel I (Takara Bio Inc., 636742) as a template, a human GYS1 gene was amplified by a PCR method using cloning primers (Forward Primer: ATGCCTTTAAACCGCAC (SEQ ID NO: 1), Reverse Primer: TTAGTTACGCTCCTCGC (SEQ ID NO: 2)). Using the amplified human GYS1 sequence as a template, a restriction enzyme sequence was added by a PCR method using sub-cloning primers (Forward Primer: […] (SEQ ID NO: 3), Reverse Primer: […] (SEQ ID NO: 4)). Then, the human GYS1 gene was introduced between a Xho I site and a Xba I site of pCDNA3.1(+) (Invitrogen Corporation, V790-20).
Glycogen synthase was prepared by the following method according to the published article (THE JOURNAL OF BIOLOGICAL CHEMISTRY Vol. 269, No. 41, 25534-25542, 1994). Human kidney-derived HEK293T cells were seeded in a dish (Thermo Fisher Scientific Inc., 168381) using a 10% FBS-containing DMEM (Nacalai Tesque, Inc., 0845874) medium, and cultured overnight. Then, using Lipofectamine LTX (Invitrogen Corporation, 15338-100), the human GYS1 expression vector was transfected according to the attached manual. After culturing under conditions of 37° C. and 5% CO2 for 2 days, the resultant was dissolved in a lysis buffer (50 mM Tris-HCl (pH 8.0), 10 mM EDTA, 2 mM EGTA, 100 mM NaF, 1 mM PMSF, 1 mM DTT, 1× Complete (Roche Diagnostics K. K., 1873580)), homogenized, and then centrifuged at 16000×g at 4° C. for 15 minutes. To the precipitated fraction, a lysis buffer was added. Re-dissolved fractions were used as glycogen synthase for evaluation.
The glycogen synthase activity was measured by the following method. To a polystyrene 96-well plate, a solution containing 30 mM glycylglycine (pH 7.3), 40 mM KCl, 20 mM MgCl2, 9.2% DMSO containing one of the test compounds at various concentrations, and 10 mM glucose-6-phosphate (Sigma-Aldrich Corporation, G7879) was added by 12 μL/well.
Next, a substrate solution containing 30 mM glycylglycine (pH 7.3), 4.3 mg/mL of glycogen (Sigma-Aldrich Corporation, G8876), 21.6 mM UDP-glucose (Sigma-Aldrich Corporation, U4625), 21.6 mM phosphoenolpyruvic acid (Sigma-Aldrich Corporation, P0564), and 4.05 mM NADH (Sigma-Aldrich Corporation, N8129) was added by 18 μL/well.
Further, an enzyme solution containing 50 mM Tris-HCl (pH 8.0), 27 mM DTT (Nacalai Tesque, Inc., 14128-04), 0.2 mg/mL of bovine serum albumin, 0.17 mg/mL of the glycogen synthase, 1.5 μL of a pyruvate kinase/lactate dehydrogenase solution (Sigma-Aldrich Corporation, P0294) was added by 18 μL/well to prepare a reaction solution. After the reaction solution was incubated (at 30° C. for 25 minutes for Examples 1 to 10, at 37° C. for 20 minutes for Examples 11 to 75), the absorbance at 340 nm was measured using Benchmark Plus (Bio-Rad Laboratories, Inc.).
The activities of the test compounds were calculated by the following method. The change in the absorbance (ΔA340) was calculated by subtracting the absorbance at 340 nm of the reaction solution containing the compound and DMSO from the absorbance at 340 nm of a reaction solution not containing the compound but containing only DMSO. The ΔA340 of the reaction solution containing the compound of Example 1 in WO/2011/058154 at the final concentration of 10 μM was taken as 100% to calculate the relative activity (%) of the test compounds at various concentrations. EC50 representing the concentration of the compound which induces an increase in the relative activity to 50% was calculated using XLfit (idbs).
Broadly, the EC50 is the concentration needed to bring the measured effect to its halfway point. Turning to `Cc1cc2cccc(-c3ccc(OCc4cccc(C(=O)N5CCC[C@H]5C(=O)O)c4)cc3)c2o1` [compound of Ex. 8], a half-maximal effect (EC50) was put at 820 nM.

Staying with this assay, now noted: concentration inducing relative activity of 50% (100% = Ex. 1 of WO/2011/058154 at 10 μM); incubation at 37° C. for 20 minutes (Examples 11 to 75).
Compound `C#CCOc1cc(-c2ccc(OCc3cccc(C(=O)N4CCC[C@H]4C(=O)O)c3)cc2)cc(F)c1F` [compound of Ex. 47, 1-[3-({[3′,4′-difluoro-5′-(prop-2-yn-1-yloxy)biphenyl-4-yl]oxy}methyl)benzoyl]-L-proline] returned a 50% effective concentration (EC50) of 150 nM. In turn, `O=C(O)[C@@H]1CCCN1C(=O)c1cccc(COc2ccc(-c3cc(F)c(F)c4occc34)cc2)c1` [compound of Ex. 30, 1-(3-{[4-(6,7-difluoro-1-benzofuran-4-yl)phenoxy]methyl}benzoyl)-L-proline] had an EC50 of 140 nM.

As for `Cc1cc2c(F)c(F)cc(-c3ccc(OCc4cccc(C(=O)N5CCC[C@H]5C(=O)O)c4)cc3)c2o1` [compound of Ex. 23, 1-(3-{[4-(4,5-difluoro-2-methyl-1-benzofuran-7-yl)phenoxy]methyl}benzoyl)-L-proline], the half-maximal effective concentration (EC50) stood at 110 nM.

`O=C(O)[C@@H]1CCCN1C(=O)c1cccc(COc2ccc(-c3ccc(F)c4c3C=CCO4)cc2)c1` [compound of Ex. 27, 1-(3-{[4-(8-fluoro-2H-chromen-5-yl)phenoxy]methyl}benzoyl)-L-proline] had a concentration giving a half-maximal response (EC50) of 210 nM. Same read-out and setting: next, `O=C(O)[C@@H]1CCCN1C(=O)c1cccc(COc2ccc(-c3cccc4c3CCC4)cc2)c1` [compound of Ex. 24, 1-(3-{[4-(2,3-dihydro-1H-inden-4-yl)phenoxy]methyl}benzoyl)-L-proline]: 670 nM; `O=C(O)[C@@H]1CCCN1C(=O)c1cccc(COc2ccc(-c3cc4ccoc4c(F)c3F)cc2)c1` [compound of Ex. 16, 1-(3-{[4-(6,7-difluoro-1-benzofuran-5-yl)phenoxy]methyl}benzoyl)-L-proline]: 35 nM; `N#CCc1coc2c(-c3ccc(OCc4cccc(C(=O)N5CCC[C@H]5C(=O)O)c4)cc3)cc(F)c(F)c12` [compound of Ex. 46, 1-[3-({4-[3-(cyanomethyl)-4,5-difluoro-1-benzofuran-7-yl]phenoxy}methyl)benzoyl]-L-proline]: 150 nM.

For `Cc1cc2c(F)c(F)cc(-c3ccc(OCc4cccc(C(=O)N5CCC[C@H]5C(=O)O)c4)cc3)c2s1` [compound of Ex. 62, 1-(3-{[4-(4,5-difluoro-2-methyl-1-benzothien-7-yl)phenoxy]methyl}benzoyl)-L-proline], it took 270 nM to reach a half-maximal effect (EC50). Same read-out and setting: next, `O=C(O)[C@@H]1CCCN1C(=O)c1cccc(COc2ccc(-c3cc(F)c(F)c4ccsc34)cc2)c1` [compound of Ex. 39, 1-(3-{[4-(4,5-difluoro-1-benzothien-7-yl)phenoxy]methyl}benzoyl)-L-proline]: 42 nM. The same measure, in the same setting: next, `O=C(O)[C@@H]1CCCN1C(=O)c1cccc(COc2ccc(-c3cccc4ccsc34)cc2)c1` [compound of Ex. 28, 1-(3-{[4-(1-benzothien-7-yl)phenoxy]methyl}benzoyl)-L-proline]: 890 nM; `O=C(O)[C@@H]1CCCN1C(=O)c1cccc(COc2ccc(-c3cc(F)c(F)c4ccoc34)cc2F)c1` [compound of Ex. 60, 1-(3-{[4-(4,5-difluoro-1-benzofuran-7-yl)-2-fluorophenoxy]methyl}benzoyl)-L-proline]: 160 nM; `O=C(O)[C@@H]1CSCN1C(=O)c1cccc(COc2ccc(-c3cc(F)c(F)c4ccoc34)cc2)c1` [compound of Ex. 68, (4R)-3-(3-{[4-(4,5-difluoro-1-benzofuran-7-yl)phenoxy]methyl}benzoyl)-1,3-thiazolidine-4-carboxylic acid]: 340 nM. Still for that read-out and setting: under `COCc1cc2c(F)c(F)cc(-c3ccc(OCc4cccc(C(=O)N5CCC[C@H]5C(=O)O)c4)cc3)c2o1` [compound of Ex. 73, 1-[3-({4-[4,5-difluoro-2-(methoxymethyl)-1-benzofuran-7-yl]phenoxy}methyl)benzoyl]-L-proline] stands 65 nM.
